Data from publication PMC3794971, “Functional and Genetic Characterization of Neuropeptide Y-Like Receptors in Aedes aegypti” (PLoS Neglected Tropical Diseases, 2013).
pEC50: −log10 of the molar value. Square brackets hold non-standard residues; d marks the D form. Peptide text beside a SMILES is read from it. Hyp = O=C(O)[C@@H]1C[C@@H](O)CN1; pGlu = O=C1CC[C@@H](C(=O)O)N1

Legend:
[1] = molecular target: T1, Ae. aegypti NPYLR1 (Aedes aegypti, UniProt U5N0U1); experiment: HEK293T cell-based calcium imaging assay, Ae. aegypti NPYLR1; settings: for pEC50: HEK293T cells transiently co-transfected with receptor and murine Gqα15, Fura-2 calcium imaging, eight responding cells per plate, three independent transfections, normalized to highest response
T1 sequence (U5N0U1 1-529): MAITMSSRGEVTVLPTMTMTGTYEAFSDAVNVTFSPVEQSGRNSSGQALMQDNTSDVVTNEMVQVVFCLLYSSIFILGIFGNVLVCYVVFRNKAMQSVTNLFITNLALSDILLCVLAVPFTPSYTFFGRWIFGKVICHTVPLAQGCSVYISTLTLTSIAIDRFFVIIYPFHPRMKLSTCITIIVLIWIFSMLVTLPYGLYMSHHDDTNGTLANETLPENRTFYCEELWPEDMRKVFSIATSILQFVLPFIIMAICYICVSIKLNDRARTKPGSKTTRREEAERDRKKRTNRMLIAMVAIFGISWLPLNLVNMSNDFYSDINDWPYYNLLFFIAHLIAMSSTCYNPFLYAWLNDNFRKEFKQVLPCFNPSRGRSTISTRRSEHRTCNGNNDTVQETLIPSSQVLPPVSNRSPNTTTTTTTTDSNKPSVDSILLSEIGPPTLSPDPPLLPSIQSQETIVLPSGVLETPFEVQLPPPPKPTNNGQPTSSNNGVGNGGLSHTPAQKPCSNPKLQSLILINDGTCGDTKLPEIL
Description: The variant alleles of NPYLR1 (alleles A–D) and NPYLR7 (alleles A–B) were tested in the cell-based assay as follows: NPYLR1A, NPYLR7A, and NPYLR7B were tested against the entire panel of peptides. NPYLR1B, NPYLR1C, and NPYLR1D were tested against Head Peptide-I and sNPF-3 only.

[2] = molecular target: T2, D.mel-sNPFR (Drosophila melanogaster, UniProt Q9VW75); experiment: HEK293T cell-based calcium imaging assay, D.mel-sNPFR; settings: HEK293T + murine Gqα15, Fura-2 calcium imaging
T2 sequence (Q9VW75 1-600): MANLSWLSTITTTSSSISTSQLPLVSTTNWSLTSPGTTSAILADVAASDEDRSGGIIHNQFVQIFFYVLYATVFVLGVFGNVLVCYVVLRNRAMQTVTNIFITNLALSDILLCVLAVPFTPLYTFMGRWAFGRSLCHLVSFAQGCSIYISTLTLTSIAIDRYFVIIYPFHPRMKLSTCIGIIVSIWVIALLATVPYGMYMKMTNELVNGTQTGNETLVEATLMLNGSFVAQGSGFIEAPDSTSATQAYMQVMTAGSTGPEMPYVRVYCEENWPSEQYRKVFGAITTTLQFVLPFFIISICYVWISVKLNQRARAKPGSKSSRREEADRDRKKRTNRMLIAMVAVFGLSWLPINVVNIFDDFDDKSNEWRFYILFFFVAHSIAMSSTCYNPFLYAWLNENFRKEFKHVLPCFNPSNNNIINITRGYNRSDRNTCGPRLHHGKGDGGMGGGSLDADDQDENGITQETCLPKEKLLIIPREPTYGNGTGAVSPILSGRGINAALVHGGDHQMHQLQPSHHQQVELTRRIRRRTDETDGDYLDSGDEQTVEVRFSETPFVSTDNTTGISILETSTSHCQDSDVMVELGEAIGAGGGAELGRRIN
Description: (§2) HEK293T cells were cultured using standard protocols in a Thermo Scientific FORMA Series II – Water Jacketed CO2 incubator (Waltham, MA, USA). Lipofectamine 2000 (Invitrogen) was used for transient transfection of 1 µg pME18S>Candidate receptor and 1 µg pME18S>murine Gqα15 [14]. Transfected cells were loaded with the calcium sensitive dye Fura-2 (Invitrogen) according to product instructions. Cells were imaged on a Nikon Eclipse TE-2000-U microscope (Melville, NY, USA) using fluorescent excitation from a Lambda DG-4 (Sutter Instruments Co., Novato, CA, USA). Bath application of ∼300 µl solutions containing peptides diluted in Ringer's solution (0.14 M NaCl, 5.6 mM KCl, 5 mM HEPES, 2 mM pyruvic acid, 2 mM CaCl2, 2 mM MgCl2, 0.15% Glucose, 1.25 mM KH2PO4, pH 7.4) were delivered using a diaphragm pump (Gilson Minipuls3, Middleton, WI, USA) with real-time recording and analysis in Metafluor software (Version 7.1.2.0; Molecular Devices, Sunnyvale, CA, USA). Data from a complete peptide dilution series were collected from eight responding cells within each plate of three independent transfections. Data were normalized by setting the highest fluorescent response within each experiment to 100%.
We also used human Neuropeptide Y (NPY) and Peptide YY (PYY) [23](Figure 2B). […]

[3] = system: Ae. aegypti female mosquitoes; experiment: Host-seeking behavior in uniport olfactometer after peptide injection; assay type: in vivo, Aedes aegypti; settings: non-blood-fed females, 200 nl of 4 and 10 mM peptide injected into abdomen, tested after one hour; n = 6, ~20 females per trial
From the text: The uniport olfactometer was custom built by Vadim Sherman in the Rockefeller University High Energy Physics Instrument Shop. Approximately 15-25 female mosquitoes aged 5 to 14 days were placed within loaders, which are small plastic cylinders with mesh covering both openings and a sliding door on one end obtained from the World Health Organization Vector Control Research Unit ([…], Malaysia). […] were attached to one end of a 1 m long plastic tube ([…]) that led to an “attraction trap” (14 cm long, 5 cm diameter), followed by a sealed chamber into which a human volunteer inserted a hand or forearm (see image in Figure 1A for the configuration with a hand stimulus). Humidified room air was carbon-filtered (Donaldson Ultrac-A, Bloomington, MN), supplemented to a final concentration of 5% CO2 using flow-meters (Cole Parmer, catalogue #023-92-ST, Vernon Hills, IL), and passed over the hand or forearm of the volunteer into the olfactometer at 3.8 L/min. Mosquito loaders were attached to the olfactometer and given 5 minutes to acclimatize to air-flow prior to a 5 minute host-seeking test. Mosquitoes were scored as attracted if they flew upwind through the 1 m tube and into the “attraction trap” within the allotted time. Solutions of Head Peptide-I, sNPF-3 and Head Peptide-I [[…]] were dissolved in saline (0.1M NaCl, 4 mM KCl, 2 mM CaCl2) at a concentration of 4 and 10 mM for injection. ∼20 female mosquitoes aged 5 to 14 days were anesthetized on ice for 3 min, moved individually onto a chill-plate (BioQuip catalogue #1429, Rancho Dominguez, CA, USA), and injected with 200 nl of desired solution using a Drummond Nanoject II (Drummond catalogue # 3-000-204, Broomall, PA, USA) attached to 3.5'' needles (Drummond, catalogue #3-000-203-G/X) shaped on a needle puller (Sutter Instruments Co., Model P-97). Solutions were injected into the abdomen by piercing the second abdominal […] from the ovipositor. Injected mosquitoes were placed in loaders and allowed one hour to recover from injection before being tested for host-seeking behavior in the uniport olfactometer.

[4] = system: Ae. aegypti female mosquitoes; settings: earlier report; cited from earlier work
Description: At least two mechanisms for host-seeking inhibition have been proposed. First, abdominal distension triggered by blood ingestion is communicated through the ventral nerve cord to inhibit host attraction for approximately 24 hours [7](Figure 1B). Second, a humoral substance discovered in hemolymph at 48 hours after a blood meal is capable of suppressing host-seeking behavior when injected into non-blood-fed females [4](Figure 1B).

[5] = molecular target: T3, A.gam-sNPFR (Anopheles gambiae, UniProt A0SIF2); settings: earlier reports, not this paper's assay; cited from earlier work
T3 sequence (A0SIF2 1-575): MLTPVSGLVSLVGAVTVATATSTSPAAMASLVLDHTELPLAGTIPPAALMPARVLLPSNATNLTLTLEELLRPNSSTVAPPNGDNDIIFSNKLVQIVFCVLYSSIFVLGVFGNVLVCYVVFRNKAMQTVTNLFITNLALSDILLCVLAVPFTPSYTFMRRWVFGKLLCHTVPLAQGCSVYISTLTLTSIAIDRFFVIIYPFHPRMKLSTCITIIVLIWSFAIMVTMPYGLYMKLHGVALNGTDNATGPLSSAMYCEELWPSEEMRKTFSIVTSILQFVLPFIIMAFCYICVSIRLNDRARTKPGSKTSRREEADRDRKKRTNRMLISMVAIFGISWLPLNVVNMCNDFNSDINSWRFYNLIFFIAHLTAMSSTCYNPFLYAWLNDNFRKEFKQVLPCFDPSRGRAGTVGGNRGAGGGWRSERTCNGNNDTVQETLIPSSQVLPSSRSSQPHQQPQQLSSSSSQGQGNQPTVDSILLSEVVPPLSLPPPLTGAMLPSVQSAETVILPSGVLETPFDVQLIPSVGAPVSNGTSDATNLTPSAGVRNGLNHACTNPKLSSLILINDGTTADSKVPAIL
From the text: (§1) Ae. aegypti NPYLR1 is homologous to the sNPF receptors (sNPFR) of D. melanogaster, [24] and An. gambiae. […] We have no explanation for these discrepancies, but note that since D ...

[6] = molecular target: T2, D.mel-sNPFR; settings: earlier reports, not this paper's assay; cited from earlier work
From the text: as §1

[7] = system: Ae. aegypti NPYLR7; experiment: HEK293T cell-based calcium imaging assay, Ae. aegypti NPYLR7; set-up: species or system Aedes aegypti; settings: HEK293T + murine Gqα15, Fura-2 calcium imaging; NPYLR7B allele responded, NPYLR7A did not
Description: as §2
NPYLR1B, NPYLR1C, and NPYLR1D were tested against Head Peptide-I and sNPF-3 only. […]

| Molecule | pEC50 [1] | Host-seeking behavior (percent attraction to human host stimuli) after injection [3] | Host-seeking behavior activity of injected peptide [4] | further results |
| --- | --- | --- | --- | --- |
| CC(C)C[C@H](NC(=O)[C@H](CCCNC(=N)N)NC(=O)[C@H](CC(C)C)NC(=O)[C@H](CCC(N)=O)NC(=O)[C@@H]1CCCN1C(=O)[C@H](C)N)C(=O)N[C@@H](CCCNC(=N)N)C(=O)N[C@@H](Cc1ccccc1)C(N)=O [sNPF-2+4] (H-APQLRLRF-NH2) | 7.46 |  |  |  |
| CC(C)C[C@H](NC(=O)[C@H](CO)NC(=O)[C@@H]1C[C@@H](O)CN1C(=O)[C@@H]1CCCN1C(=O)[C@H](CCCNC(=N)N)NC(=O)[C@@H]1CCC(=O)N1)C(=O)N[C@@H](CCCCN)C(=O)N[C@H](C(=O)N[C@@H](CCCNC(=N)N)C(=O)N[C@@H](Cc1ccccc1)C(N)=O)[C@@H](C)O [Head Peptide-I] ([pGlu]RP[Hyp]SLKTRF-NH2) | 6.08 | inhibition of host-seeking behavior | sufficient to inhibit host-seeking behavior | pEC50 [2]: 6.00 |
| pERPhPSLKTRC [Head Peptide-I [Cys10]] |  | had no effect | inactive | Calcium response of NPYLR1 ([1]; concentrations up to 50 µM, HEK293T + murine Gqα15, Fura-2): no response |
| CC(C)C[C@H](NC(=O)[C@H](CO)NC(=O)[C@@H]1CCCN1C(=O)[C@@H]1CCCN1C(=O)[C@H](CCCNC(=N)N)NC(=O)[C@@H]1CCC(=O)N1)C(=O)N[C@@H](CCCCN)C(=O)N[C@H](C(=O)N[C@@H](CCCNC(=N)N)C(=O)N[C@@H](Cc1ccccc1)C(N)=O)[C@@H](C)O [Head Peptide-III] ([pGlu]RPPSLKTRF-NH2) | 6.02 |  | behaviorally inactive | Sensitivity of An. gambiae sNPFR to Head Peptide-III [5]: lack sensitivity; Sensitivity of D. melanogaster sNPFR to Head Peptide-III [6]: lack sensitivity |
| CC(C)C[C@H](NC(=O)[C@H](CCCNC(=N)N)NC(=O)[C@H](CCC(N)=O)NC(=O)[C@H](CO)NC(=O)[C@@H]1CCCN1C(=O)[C@H](C)N)C(=O)N[C@@H](CCCNC(=N)N)C(=O)N[C@@H](Cc1c[nH]c2ccccc12)C(N)=O [sNPF-3] (H-APSQRLRW-NH2; N-terminus assumed) | 7.12 | inhibited host-seeking behavior |  | Sensitivity of NPYLR1 to sNPF-3 relative to Head Peptide-I ([1]; cell-based assay): ten times more sensitive; pEC50 [7]: 5.22 |
| CC(C)C[C@H](NC(=O)[C@H](CCCNC(=N)N)NC(=O)[C@H](CC(C)C)NC(=O)[C@H](CO)NC(=O)[C@@H]1CCCN1C(=O)[C@@H](N)CO)C(=O)N[C@@H](CCCNC(=N)N)C(=O)N[C@@H](Cc1ccccc1)C(N)=O [sNPF-1(4-11)] (H-SPSLRLRF-NH2) | 7.36 |  |  |  |
| CC(C)C[C@H](NC(=O)[C@H](CCCNC(=N)N)NC(=O)[C@H](CC(C)C)NC(=O)[C@H](CO)NC(=O)[C@@H]1CCCN1C(=O)[C@H](CO)NC(=O)[C@H](CCCNC(=N)N)NC(=O)[C@@H](NC(=O)[C@H](C)NC(=O)[C@@H](N)CCCCN)C(C)C)C(=O)N[C@@H](CCCNC(=N)N)C(=O)N[C@@H](Cc1ccccc1)C(N)=O [sNPF-1] (H-KAVRSPSLRLRF-NH2; N-terminus assumed) | 7.26 |  |  | pEC50 [7]: 6.20 |
